Experimental data published in paper PMC11969996, “Minimalistic bis-triarylpyridinium cations: effective antimicrobials against bacterial and fungal pathogens” (RSC Medicinal Chemistry, 2025).
Values after ≈ are worked out from the molar mass of the structure shown. Like-named read-outs stand apart in the source and are kept apart here.

Key:
red blood cells = experiment: Lysis (hemolysis) assay; format: cell-based; settings: human erythrocytes, 1 hour, 37 °C, 1% DMSO
Experimental: The hemolysis test was performed following literature procedures.[14] Preparation of the erythrocyte suspension: human blood (6 mL) was transferred to a Falcon tube. The sample was then centrifuged at 10 000 rpm for 10 minutes. After centrifugation, the supernatant was discarded, and the cells were resuspended in 4 mL of 10 mM PBS. This centrifugation and resuspension process was repeated twice to remove plasma residues. Finally, the resulting cell suspension was diluted at a 1 : 20 ratio with 10 mM PBS. Hemolysis assay: a total of 500 μL of the prepared erythrocyte suspension was aliquoted into Eppendorf tubes according to the experimental conditions. The final DMSO concentration in each condition was adjusted to 1%. A 1% Triton™ X-100 solution was used as the positive control (100% hemolysis), while the negative control consisted of erythrocytes suspended in PBS with 1% DMSO (0% hemolysis). Samples were incubated at 37 °C with shaking at 200 rpm for 1 hour. Following incubation, the samples were centrifuged at 10 000 rpm for 10 minutes. Subsequently, 200 μL of the supernatant was collected and transferred to a 96-well plate. Absorbance was measured at 520 nm using a plate reader.

E. faecalis = experiment: MIC by broth microdilution (EUCAST); format: cell-based, Enterococcus faecalis; settings: E. faecalis ATCC 29212, MHB, overnight 37 °C, read-out: Minimum inhibitory concentration (MIC90) E. faecalis
Experimental: (§1) The Gram-negative bacterial strain E. coli CECT 101 and P. aeruginosa ATCC 27853 were supplied by The Colección Española de Cultivos Tipo (CECT, Valencia, Spain) and the American Type Culture Collection (ATCC, Rockville, MD, USA). The Gram-positive bacterial strain S. aureus ATCC 25923, E. faecalis ATCC 29212 and the fungal strain C. albicans ATCC 1023 were supplied by The American Type Culture Collection (ATCC, Maryland, USA). Bacterial and yeast growth was carried out aerobically overnight at 35 °C in Mueller Hinton agar and Sabouraud dextrose agar, respectively (Scharlau, Spain).
(§2) The MIC of the compounds 1a–d, 2a–d, and 3a–d was determined by a broth microdilution method according to the EUCAST protocol. Briefly, 0.5 McFarland bacterial and fungal suspensions were prepared in Müeller Hinton broth (MHB) and Sabouraud dextrose broth (SDB) media, respectively. In a 96-well plate, serial dilutions of compounds 1a–d, 2a–d, 3a–d starting from 512 to 0 μg mL^−1 were made in MHB and SDB media, respectively. After incubation overnight at 37 °C, results were evaluated according to turbidity. Bacterial growth was determined by measuring absorbance at a wavelength of 600 nm and at 520 nm for fungi.[53–55]

E. coli [1] = experiment: MIC by broth microdilution (EUCAST); format: cell-based; settings: Escherichia coli, CECT101; E. coli CECT 101, MHB, overnight 37 °C; read-out: Minimum inhibitory concentration (MIC90) E. coli
Experimental: as §1, §2

S. aureus [2] = experiment: MIC by broth microdilution (EUCAST); format: cell-based; settings: Staphylococcus aureus, ATCC25923; S. aureus ATCC 25923, MHB, overnight 37 °C; read-out: Minimum inhibitory concentration (MIC90) S. aureus
Experimental: as §1, §2

P. aeruginosa = experiment: MIC by broth microdilution (EUCAST); format: cell-based; settings: Pseudomonas aeruginosa, ATCC27853; P. aeruginosa ATCC 27853, MHB, overnight 37 °C; read-out: Minimum inhibitory concentration (MIC90) P. aeruginosa
Experimental: as §1, §2

C. albicans [3] = experiment: Mitochondrial membrane depolarization, DiOC6(3) staining, flow cytometry; format: cell-based, Candida albicans; settings: 3.5 hours
Experimental: Cultures of C. albicans were incubated with the fluorescent probe DiOC6(3), which typically accumulates in mitochondria due to the high membrane potential when the organelle works properly. Flow cytometry was used to measure the fluorescence intensity of the accumulated dye, establishing a baseline control (see “control” in Fig. 4).
To evaluate mitochondrial function in C. albicans by DiOC6 staining, the yeast cells were initially cultivated overnight in Sabouraud broth. The cultures were then transferred to a fresh medium, adjusting the OD600 to 0.1. […] The cultures were incubated for 3.5 hours with orbital shaking at 37 °C. After this period, the OD of each culture was standardized to 0.06 using the corresponding spent medium. Cells were subsequently stained with 0.3 μM DiOC6 for 20 minutes. Assays were performed in triplicate. Analysis was conducted using a BD Accuri™ C6 flow cytometer.

C. albicans [4] = experiment: MIC by broth microdilution (EUCAST); format: cell-based, Candida albicans; settings: overnight 37 °C, read-out: Minimum inhibitory concentration (MIC90) C. albicans
Experimental: as §1, §2

C. albicans [5] = settings: cited from earlier work
S. aureus [6] = settings: cited from earlier work
E. coli [7] = settings: cited from earlier work
[8] = Enterococcus faecalis, ATCC29212
[9] = Candida albicans, ATCC1023, C. albicans ATCC 1023, SDB

Molecule: c1ccc(-c2cc(-c3ccccc3)[n+](CCCCCCCCCC[n+]3c(-c4ccccc4)cc(-c4ccccc4)cc3-c3ccccc3)c(-c3ccccc3)c2)cc1 [1a]
- Lysis20 (red blood cells): 45 µM
- MIC90 (E. faecalis; [8]): 1.1 µM
- MIC90 (E. coli [1]): 4.4 µM
- MIC90 (S. aureus [2]): 4.4 µM
- MIC90 (P. aeruginosa): 70 µM
- DiOC6(3) fluorescence intensity relative to control (C. albicans [3]; compound at 6 μM): about one-tenth
- MIC90 (C. albicans [4]; C. albicans ATCC 1023, SDB): 2.2 µM
- MIC90 (C. albicans [4]; [9]): 2.2 to 6.2 µM

Molecule: Brc1ccc(-c2cc(-c3ccccc3)[n+](CCCCCCCCCC[n+]3c(-c4ccccc4)cc(-c4ccc(Br)cc4)cc3-c3ccccc3)c(-c3ccccc3)c2)cc1 [1b]
- Lysis20 (red blood cells): 20 µM
- MIC90 (E. faecalis; [8]): 1 µM
- MIC90 (E. coli [1]): 7.6 µM
- MIC90 (S. aureus [2]): 7.6 µM
- MIC90 (P. aeruginosa): 30 µM
- MIC90 (C. albicans [4]; [9]): 118 µM

Molecule: Brc1ccc(-c2cc(-c3ccccc3)cc(-c3ccc(Br)cc3)[n+]2CCCCCCCCCC[n+]2c(-c3ccc(Br)cc3)cc(-c3ccccc3)cc2-c2ccc(Br)cc2)cc1 [1c]
- Lysis20 (red blood cells): 27 µM
- MIC90 (E. faecalis; [8]): 13 µM
- MIC90 (E. coli [1]): > 103 µM
- MIC90 (S. aureus [2]): 13 µM
- MIC90 (P. aeruginosa): > 103 µM
- MIC90 (C. albicans [4]; [9]): > 103 µM

Molecule: Brc1ccc(-c2cc(-c3ccc(Br)cc3)[n+](CCCCCCCCCC[n+]3c(-c4ccc(Br)cc4)cc(-c4ccc(Br)cc4)cc3-c3ccc(Br)cc3)c(-c3ccc(Br)cc3)c2)cc1 [1d]
- Lysis20 (red blood cells): >256 µM
- MIC90 (E. faecalis): 6.0 µM
- MIC90 (E. faecalis; [8]): 6 µM
- MIC90 (E. coli [1]): 46 µM
- MIC90 (S. aureus [2]): 11 µM
- MIC90 (P. aeruginosa): > 91 µM
- MIC90 (C. albicans [4]; C. albicans ATCC 1023, SDB): >91 µM
- MIC90 (C. albicans [4]; [9]): > 91 µM

Molecule: CCCCCCCCCCCC[n+]1c(-c2ccccc2)cc(-c2ccccc2)cc1-c1ccccc1 [2a]
- Lysis20 (red blood cells): 31 µM
- MIC90 (E. faecalis; [8]): 3.6 µM
- MIC90 (E. coli [1]): 28 µM
- MIC90 (S. aureus [2]): 28 µM
- MIC90 (P. aeruginosa): > 112 µM
- MIC90 (C. albicans [4]; C. albicans ATCC 1023, SDB): 3.6 µM
- MIC90 (C. albicans [4]; [9]): 2.2 to 6.2 µM

Molecule: CCCCCCCCCCCC[n+]1c(-c2ccccc2)cc(-c2ccc(Br)cc2)cc1-c1ccccc1 [2b]
- Lysis20 (red blood cells): 26 µM
- MIC90 (E. faecalis; [8]): 24 µM
- MIC90 (E. coli [1]): 25 µM
- MIC90 (S. aureus [2]): 12 µM
- MIC90 (P. aeruginosa): > 200 µM

Molecule: CCCCCCCCCCCC[n+]1c(-c2ccc(Br)cc2)cc(-c2ccccc2)cc1-c1ccc(Br)cc1 [2c]
- Lysis20 (red blood cells): 26 µM
- MIC90 (E. faecalis; [8]): 11 µM
- MIC90 (E. coli [1]): 178 µM
- MIC90 (S. aureus [2]): 22 µM
- MIC90 (P. aeruginosa): > 178 µM
- MIC90 (C. albicans [4]; [9]): 178 µM

Molecule: CCCCCCCCCCCC[n+]1c(-c2ccc(Br)cc2)cc(-c2ccc(Br)cc2)cc1-c1ccc(Br)cc1 [2d]
- Lysis20 (red blood cells): 42 µM
- MIC90 (E. faecalis; [8]): 40 µM
- MIC90 (E. coli [1]): > 320 µM
- MIC90 (S. aureus [2]): 40 µM
- MIC90 (P. aeruginosa): > 160 µM
- MIC90 (C. albicans [4]; [9]): > 160 µM

Molecule: CCC[n+]1c(-c2ccccc2)cc(-c2ccccc2)cc1-c1ccccc1 [3a]
- Lysis20 (red blood cells): >256 µM
- MIC90 (E. faecalis; [8]): > 293 µM
- MIC90 (E. coli [1]): > 585 µM
- MIC90 (S. aureus [2]): 146 µM
- MIC90 (P. aeruginosa): > 293 µM
- DiOC6(3) fluorescence intensity relative to control (C. albicans [3]; compound at 6 μM): normal DiOC6(3) accumulation
- MIC90 (C. albicans [4]; [9]): > 293 µM

Molecule: CCC[n+]1c(-c2ccccc2)cc(-c2ccc(Br)cc2)cc1-c1ccccc1 [3b]
- Lysis20 (red blood cells): >256 µM
- MIC90 (E. faecalis; [8]): 124 µM
- MIC90 (E. coli [1]): > 496 µM
- MIC90 (S. aureus [2]): 31 µM
- MIC90 (P. aeruginosa): > 248 µM
- MIC90 (C. albicans [4]; [9]): > 248 µM

Molecule: CCC[n+]1c(-c2ccc(Br)cc2)cc(-c2ccccc2)cc1-c1ccc(Br)cc1 [3c]
- Lysis20 (red blood cells): >256 µM
- MIC90 (E. faecalis; [8]): 54 µM
- MIC90 (E. coli [1]): > 430 µM
- MIC90 (S. aureus [2]): 54 µM
- MIC90 (P. aeruginosa): > 215 µM
- MIC90 (C. albicans [4]; [9]): > 215 µM

Molecule: CCC[n+]1c(-c2ccc(Br)cc2)cc(-c2ccc(Br)cc2)cc1-c1ccc(Br)cc1 [3d]
- Lysis20 (red blood cells): >256 µM
- MIC90 (E. faecalis; [8]): 24 µM
- MIC90 (E. coli [1]): > 380 µM
- MIC90 (S. aureus [2]): 48 µM
- MIC90 (P. aeruginosa): > 190 µM
- MIC (C. albicans [4]; [9]): > 90 µM

Molecule: Cc1cc(N)c2ccccc2[n+]1CCCCCCCCCC[n+]1c(C)cc(N)c2ccccc21 [DQA, dequalinium chloride]
- MIC (C. albicans [5]): 5.5 µM
- MIC (S. aureus [6]): 2.4 µM
- MIC (E. coli [7]): 121 µM

Molecule: N#CC(C#N)=NNc1ccc(OC(F)(F)F)cc1 [FCCP, carbonyl cyanide-4-(trifluoromethoxy)phenylhydrazone, reference compound]
- DiOC6(3) fluorescence intensity relative to control (C. albicans [3]; compound at 30 μM): approximately half

Molecule: CCCCCCCCN=c1ccn(CCCCCCCCCCn2ccc(=NCCCCCCCC)cc2)cc1 [OCT, octenidine]
- MIC (C. albicans [5]): 2.93 µM (≈ 1.61 µg/mL)

Molecule: COc1ccc2cc3[n+](cc2c1OC)CCc1cc2c(cc1-3)OCO2 [berberine]
- MIC (C. albicans [5]): 24 µM

Molecule: benzalkonium chloride [BAC]
- MIC (S. aureus [6]): 4 µM
- MIC (E. coli [7]): 63 µM
